In the assay the test system is B6C3F1 mice, B16 melanoma ip, median survival T/C. Put plainly: NCI In Vivo Anticancer Drug Screen. Data for tumor model B16 Melanoma (intraperitoneal) in B6C3F1 mice. To be noted: endpoint: median survival time, schedule: Q01DX009 (ip), higher = longer survival. In outline:
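Mice bearing transplanted tumor were dosed with compound or vehicle, and survival was recorded. Activity is expressed as the treated-group measurement (T) divided by the vehicle control measurement (C).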

Where [1] appears, read: dose: 6.25 mg/kg/injection, vehicle: Klucel (hydroxypropylcellulose) (HPC).
Setting [2] is: dose: 12.5 mg/kg/injection, vehicle: Klucel (hydroxypropylcellulose) (HPC).
Where [3] appears, read: dose: 25.0 mg/kg/injection, vehicle: Klucel (hydroxypropylcellulose) (HPC).
[4] abbreviates: dose: 50.0 mg/kg/injection, vehicle: Klucel (hydroxypropylcellulose) (HPC).
[5] abbreviates: dose: 100.0 mg/kg/injection, vehicle: Klucel (hydroxypropylcellulose) (HPC).
Setting [6] is: dose: 200.0 mg/kg/injection, vehicle: Klucel (hydroxypropylcellulose) (HPC).
The mark [7] stands for this setting: dose: 12.5 mg/kg/injection, vehicle: saline.
[8] abbreviates: dose: 25.0 mg/kg/injection, vehicle: saline.
Where [9] appears, read: dose: 50.0 mg/kg/injection, vehicle: saline.
[10] abbreviates: dose: 400.0 mg/kg/injection, vehicle: Klucel (hydroxypropylcellulose) (HPC).

Values joined by “and” are separate entries in the source; they are usually repeats but may differ in a detail not shown here. Equal entries are not always repeated. Toxic doses and inconclusive results are not listed. Where a SMILES comes first, the peptide text is derived from it. The star is where a group is joined. Cbz = O=C(OCc1ccccc1)*; Bn = c1ccc(C*)cc1

On to `C[C@H]1C[C@@H]2[C@H]([C@@H](O)C[C@@]3(C)[C@H]2CC[C@]3(O)C(=O)CO)[C@@]2(C)C=CC(=O)C=C12`, for which the T/C is, setting by setting: under setting [1], 115 % of control and 101 % of control; under setting [2], 110 % of control and 101 % of control; under setting [3], 114 % of control and 107 % of control; under setting [4], 109 % of control and 111 % of control; under setting [5], 118 % of control and 119 % of control; under setting [6], 112 % of control and 121 % of control.
For the compound `O=CC(S)CO` (configuration not stated), the T/C runs as follows: under setting [7], 107 % of control; under setting [8], 111 % of control; under setting [9], 123 % of control.
As for `[CH3][Sn]([CH3])([Cl])[S]CCN`, the T/C (dose: 3.12 mg/kg/injection, vehicle: saline) was 109 % of control and 102 % of control; the T/C (dose: 6.25 mg/kg/injection, vehicle: saline) is 95 % of control and 96 % of control; the T/C under setting [7] is 96 % of control and 102 % of control; the T/C under setting [8] was 100 % of control; the T/C under setting [9] is 97 % of control.
As to `CCN1C[C@]2(COC)[C@H](O)C[C@H](OC)[C@]34C1[C@H]([C@H](OC)[C@H]23)[C@]1(OC(C)=O)[C@H]2[C@@H](OC(=O)c3ccccc3)[C@](O)(C[C@H]24)[C@@H](OC)[C@@H]1O`, the T/C by setting is: (dose: 7.5 micrograms/kg/injection, vehicle: saline) 118 % of control; (dose: 15.0 micrograms/kg/injection, vehicle: saline) 115 % of control; (dose: 30.0 micrograms/kg/injection, vehicle: saline) 99 % of control; (dose: 60.0 micrograms/kg/injection, vehicle: saline) 122 % of control.
In the case of `CSc1ncc2ncn(C3OC(CO)C(O)C3O)c2n1` (configuration not stated), the T/C is 101 % of control and 105 % of control under setting [3]; 95 % of control and 98 % of control under setting [4]; 103 % of control under setting [5]; 106 % of control under setting [6]; 110 % of control and 89 % of control under setting [10].
For the compound `CCCCCCCCCCCC(=O)NC1CC(O[C@H]2C[C@](O)(C(=O)CO)Cc3c(O)c4c(c(O)c32)C(=O)c2c(OC)cccc2C4=O)OC(C)C1O` (some centres not stated), the T/C reads like this: (dose: 3.0 mg/kg/injection, vehicle: saline) 171 % of control and 294 % of control; (dose: 6.0 mg/kg/injection, vehicle: saline) 250 % of control and 333 % of control; (dose: 12.0 mg/kg/injection, vehicle: saline) 333 % of control and 357 % of control; (dose: 24.0 mg/kg/injection, vehicle: saline) 122 % of control and 357 % of control; (dose: 48.0 mg/kg/injection, vehicle: saline) 94 % of control.
As for `CS(=O)(=O)OCCn1c(=O)n(CCOS(C)(=O)=O)c(=O)n(CCOS(C)(=O)=O)c1=O`, the T/C by setting is: under setting [5], 97 % of control; under setting [6], 95 % of control; under setting [10], 86 % of control.
For the compound `C[C@H]1CCC/C=C/[C@@H]2C[C@H](O)C[C@H]2[C@H](O)/C=C/C(=O)O1`, the T/C under setting [2] is 89 % of control, the T/C under setting [3] was 91 % of control and the T/C under setting [4] was 91 % of control.
`O=c1ccc2ccccc2o1`: the T/C reads like this: (dose: 7.5 mg/kg/injection, vehicle: saline with Tween-80) 116 % of control and 118 % of control; (dose: 15.0 mg/kg/injection, vehicle: saline with Tween-80) 117 % of control and 120 % of control; (dose: 30.0 mg/kg/injection, vehicle: saline with Tween-80) 111 % of control and 112 % of control; (dose: 60.0 mg/kg/injection, vehicle: saline with Tween-80) 120 % of control and 100 % of control; (dose: 120.0 mg/kg/injection, vehicle: saline with Tween-80) 90 % of control and 96 % of control.
With `CCOC(=O)N1CCN(CCCCCOc2ccccc2C2CCCCC2)CC1`, the T/C was 108 % of control (dose: 12.5 mg/kg/injection, vehicle: saline with Tween-80); 96 % of control (dose: 25.0 mg/kg/injection, vehicle: saline with Tween-80); 87 % of control (dose: 50.0 mg/kg/injection, vehicle: saline with Tween-80).
On to `CCC1OC(OC)C=CC1=O` (configuration not stated), for which the T/C was 106 % of control under setting [7], 108 % of control under setting [8] and 104 % of control under setting [9].
On to `O=C1C=C[C@H](O)[C@@]2(CO)O[C@@H]12`, for which the T/C (dose: 0.31 mg/kg/injection, vehicle: saline with Tween-80) is 98 % of control; the T/C (dose: 0.62 mg/kg/injection, vehicle: saline with Tween-80) was 100 % of control; the T/C (dose: 1.25 mg/kg/injection, vehicle: saline with Tween-80) was 102 % of control; the T/C (dose: 2.5 mg/kg/injection, vehicle: saline with Tween-80) is 109 % of control; the T/C (dose: 5.0 mg/kg/injection, vehicle: saline with Tween-80) was 115 % of control and 93 % of control; the T/C (dose: 10.0 mg/kg/injection, vehicle: saline with Tween-80) was 121 % of control.
`COc1ccc2[nH]c3c(c2c1)CCNC3CC(C)CCC=C(C)C` (configuration not stated): the T/C by setting is: under setting [1], 99 % of control; under setting [2], 88 % of control; under setting [3], 97 % of control; under setting [4], 102 % of control; under setting [5], 105 % of control.
For `NC(=O)c1ncn(C2OC(CO)C(O)C2O)c1O` (configuration not stated), the T/C was 102 % of control and 106 % of control under setting [2]; 102 % of control and 107 % of control under setting [3]; 98 % of control and 107 % of control under setting [4]; 96 % of control and 106 % of control under setting [5]; 97 % of control and 102 % of control under setting [6]; 90 % of control under setting [10].
As for `CCOc1ccccc1C(=O)Nc1ccc(Br)cc1`, the T/C by setting is: under setting [4], 117 % of control; under setting [6], 117 % of control.
For `O=C(NC(CSCc1ccccc1)C(=O)NC(Cc1ccc(O)cc1)C(=O)O)OCc1ccccc1` (configuration not stated) (Cbz-Cys(Bn)-Tyr-OH; configuration not given here), the T/C was 90 % of control (dose: 100.0 mg/kg/injection, vehicle: saline with Tween-80); 101 % of control (dose: 200.0 mg/kg/injection, vehicle: saline with Tween-80); 87 % of control (dose: 400.0 mg/kg/injection, vehicle: saline with Tween-80).

For the origin of these results see PubChem BioAssay AID200 (DTP/NCI, 2004).
